According to patent US4351949A, “Bicyclic prostaglandin analogs and method of synthesis” (Iowa State University Research Foundation, Inc., priority 1981, dated 1982):
Converted amounts (≈) assume the structure as drawn. Read-outs that look alike come from different tables or passages of the source.

Columns and labels:
[1] = test system: arachidonic acid induced platelet aggregation; test: in vitro arachidonic acid induced blood platelet aggregation; assay type: cell-based
Procedure: The compounds of Examples 1 through 11 were tested against arachidonic acid induced platelet aggregation.

[2] = test system: experimental thrombosis; test: in vivo biolaser model of experimental thrombosis (rabbit ear chamber); details: combined with anagrelide at a lower than threshold level
From the text: These compounds were studied in vivo in an animal model for experimental thrombosis. The use of this model is described in detail in the reprint, Use of the Biolaser in the Evaluation of Anti-Thrombotic Agents, J. S. Fleming et al. "Platelets and Thrombosis", eds. S. Sherry and A. Scriabrine, University Park Press, 1974, Baltimore, which is incorporated herein by reference.
In brief, a micro-injury is created by a laser beam focused through a microscope onto the endothelium surface of a small blood vessel in a surgically implanted ear chamber of a rabbit. The injury induces the rapid formation of a platelet thrombis which can be measured. […] Prostacyclin is active in the biolaser model when infused intraveneously. The results of these tests preliminarily indicate that there is a super additive interaction between anagrelide and the compounds of this invention. […] To date, no other compounds have undergone significant in vivo analysis in the rabbit ear test.

[3] = test system: experimental thrombosis; details: cited from earlier work; for inhibition of laser-induced thrombosis by potent inhibitors of platelet aggregation: rabbit ear chamber, general statement on the model
[4] = concentration of agent necessary to reduce by 50% the in vitro blood platelet aggregation caused by addition of arachidonic acid, read-out: EC 50 vs Arachidonic Acid
[5] = Platelet, for comparison, vs arachidonic acid, read-out: EC 50 of comparison compounds

Compound	EC50 [1, 4] [µg/mL]	other results
CCCCCC(O)C#CC1C2CCC(C2)C1C/C=C/CCCC(=O)O (stereo not drawn) [Example 1]	0.045 (≈ 0.13 µM)	
CCCCCC(O)C#CC1C2CCC(C2)C1C/C=C/CCCC(=O)OC (stereo not drawn) [Example 2]	0.07 (≈ 0.194 µM)	reduction in thrombosis in combination with anagrelide [2]: substantial reduction in thrombosis
CCCCCC(O)C#CC1C2CCC(C2)C1C/C=C/CCCCCCCC(=O)O (stereo not drawn) [Example 3]	1 (≈ 2.48 µM)	
CCCCCC(O)C#CC1C2CCC(C2)C1C/C=C/CCCCCCCC(=O)OC (stereo not drawn) [Example 4]	0.4 (≈ 0.96 µM)	
CCCCCC(O)C#CC1C2CCC(C2)C1C/C=C/C(=O)O (stereo not drawn) [Example 5]	4 (≈ 13.1 µM)	
CCCCCC(O)C#CC1C2CCC(C2)C1C/C=C/C(=O)OC (stereo not drawn) [Example 6]	8 (≈ 25.1 µM)	
CCCCCC(O)C#CC1C2C=CC(C2)C1C/C=C/CCCC(=O)OC (stereo not drawn) [Example 7]	3.6 (≈ 10 µM)	
CCCCCC(O)C#CC1C2CCC(CC2)C1C/C=C/CCCC(=O)OC (stereo not drawn) [Example 8]	5.8 (≈ 15.5 µM)	
CCCCCC(O)C#CC1C2CCC(C2)C1C/C=C/CCCCO (stereo not drawn) [Example 9]	3.6 (≈ 10.8 µM)	
CCCCC[C@H](O)/C=C/[C@H]1[C@H](O)CC(=O)[C@@H]1CCCCCCC(=O)O [PGE1, reference compound]		EC50 [1, 5]: 0.018 µg/mL (≈ 0.0508 µM)
O=C1CN2Cc3c(ccc(Cl)c3Cl)N=C2N1 [anagrelide]		inhibition of laser-induced thrombosis by potent inhibitors of platelet aggregation [3]: significant inhibition
CCCCC[C@H](O)/C=C/[C@@H]1[C@H]2C/C(=C/CCCC(=O)O)O[C@H]2C[C@H]1O [prostacyclin]		EC50 [1, 5]: 0.004 µg/mL (≈ 0.0113 µM); activity in the biolaser model ([3]; infused intravenously, rabbit): active; inhibition of laser-induced thrombosis by potent inhibitors of platelet aggregation [3]: significant inhibition
